Read-outs that look alike come from different tables or passages of the source. Where only a bound is given, the exact number is not on record here.

As a reminder, the EC50 is the concentration giving half of the maximal effect.

One test deals with HBV. Description: Multiple in vitro HBV replication models (summary statements). In kind it is cell-based. As to conditions: Hepatitis B virus. The method, then: AB-452 and RG7834 both belong to the dihydroquinolizinones chemical class. The antiviral activities of AB-452 and its diastereomer ARB-169451 were evaluated using multiple in vitro HBV replication models, including HepG2.2.15 cells (which constitutively express HBV through the integrated viral genome), PLC/PRF/5 cells (a patient-derived hepatocellular carcinoma cell line only expressing HBsAg), and HBV-infected HepG2-NTCP cells or primary human hepatocytes (PHHs) in which viral replication was dependent on cccDNA transcription (Table 1).

A further test deals with RSV. Description: Antiviral selectivity panel, CPE in HEp2 cells. The conditions noted are these: human respiratory syncytial virus, HEp-2. In kind it is cell-based.

For `COCCCOc1cc2c(nc1OC)-c1cc(=O)c(C(=O)O)cn1[C@H](C(C)C)C2` [AB-452], the EC50 in the test on HBV (HepG2.2.15, PLC/PRF/5, HepG2-NTCP, PHH, read-out: HBsAg, HBeAg and HBV DNA EC50 (range over models)) is 0.28 to 6.8 nM; in the test on HBV (abstract, read-out: HBsAg EC50 in vitro (range over models)), 1.4 to 6.8 nM; in the test on RSV, over 30000 nM.

(Values after publication PMC8387043, “Host Poly(A) Polymerases PAPD5 and PAPD7 Provide Two Layers of Protection That Ensure the Integrity and Stability of Hepatitis B Virus RNA” (Journal of Virology, 2021).)
